In patent publication US10988477B2 (Merck Patent GmbH, priority 2018, dated 2021):
Read-outs that look alike come from different tables or passages of the source.

Legend:
[1] = target: intracellular GCN2 (phosphorylation of the GCN2 substrate eIF2α) (Homo sapiens, UniProt Q9P2K8); experiment: GCN2 cellular inhibition assay (AlphaScreen SureFire P-eIF2α Ser51, borrelidin-treated U2OS cells); assay type: cell-based
In short: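 Phospho-eIF2α (Ser51) in lysates was quantified by AlphaScreen SureFire after a 1 h, 37 °C treatment of U2OS cells with 10 μM borrelidin and compound at 4-fold dilutions starting from 40 μM final. Inhibition expressed in percent against wells stimulated by borrelidin alone.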

GCN2 kinase = GCN2 kinase (Homo sapiens, UniProt Q9P2K8); experiment: GCN2 enzyme inhibition assay (Transcreener ADP2 fluorescence polarization); assay type: biochemical; settings: 280 μM ATP
In short: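 Inhibition of 4 nM GCN2 was measured with compound up to 8 μM final, ATP 280 μM and (RS)7 peptide 200 μM over a 1 h, 25 °C reaction. ADP FP readout; IC50 and Ki(app) calculated from percent inhibition.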

[2] = compounds of Formula IV, biomarker assay, phosphorylated eIF2α Ser51 in borrelidin-treated U2OS cells
[3] = Enzyme activity for compounds of Formula IV, Ki(app), 25° C.
[4] = compounds of Formula II, biomarker assay, phosphorylated eIF2α Ser51 in borrelidin-treated U2OS cells
[5] = compounds of Formula II, 4 nM GCN2 kinase

GCN2 kinase, sequence (Q9P2K8 whole entry): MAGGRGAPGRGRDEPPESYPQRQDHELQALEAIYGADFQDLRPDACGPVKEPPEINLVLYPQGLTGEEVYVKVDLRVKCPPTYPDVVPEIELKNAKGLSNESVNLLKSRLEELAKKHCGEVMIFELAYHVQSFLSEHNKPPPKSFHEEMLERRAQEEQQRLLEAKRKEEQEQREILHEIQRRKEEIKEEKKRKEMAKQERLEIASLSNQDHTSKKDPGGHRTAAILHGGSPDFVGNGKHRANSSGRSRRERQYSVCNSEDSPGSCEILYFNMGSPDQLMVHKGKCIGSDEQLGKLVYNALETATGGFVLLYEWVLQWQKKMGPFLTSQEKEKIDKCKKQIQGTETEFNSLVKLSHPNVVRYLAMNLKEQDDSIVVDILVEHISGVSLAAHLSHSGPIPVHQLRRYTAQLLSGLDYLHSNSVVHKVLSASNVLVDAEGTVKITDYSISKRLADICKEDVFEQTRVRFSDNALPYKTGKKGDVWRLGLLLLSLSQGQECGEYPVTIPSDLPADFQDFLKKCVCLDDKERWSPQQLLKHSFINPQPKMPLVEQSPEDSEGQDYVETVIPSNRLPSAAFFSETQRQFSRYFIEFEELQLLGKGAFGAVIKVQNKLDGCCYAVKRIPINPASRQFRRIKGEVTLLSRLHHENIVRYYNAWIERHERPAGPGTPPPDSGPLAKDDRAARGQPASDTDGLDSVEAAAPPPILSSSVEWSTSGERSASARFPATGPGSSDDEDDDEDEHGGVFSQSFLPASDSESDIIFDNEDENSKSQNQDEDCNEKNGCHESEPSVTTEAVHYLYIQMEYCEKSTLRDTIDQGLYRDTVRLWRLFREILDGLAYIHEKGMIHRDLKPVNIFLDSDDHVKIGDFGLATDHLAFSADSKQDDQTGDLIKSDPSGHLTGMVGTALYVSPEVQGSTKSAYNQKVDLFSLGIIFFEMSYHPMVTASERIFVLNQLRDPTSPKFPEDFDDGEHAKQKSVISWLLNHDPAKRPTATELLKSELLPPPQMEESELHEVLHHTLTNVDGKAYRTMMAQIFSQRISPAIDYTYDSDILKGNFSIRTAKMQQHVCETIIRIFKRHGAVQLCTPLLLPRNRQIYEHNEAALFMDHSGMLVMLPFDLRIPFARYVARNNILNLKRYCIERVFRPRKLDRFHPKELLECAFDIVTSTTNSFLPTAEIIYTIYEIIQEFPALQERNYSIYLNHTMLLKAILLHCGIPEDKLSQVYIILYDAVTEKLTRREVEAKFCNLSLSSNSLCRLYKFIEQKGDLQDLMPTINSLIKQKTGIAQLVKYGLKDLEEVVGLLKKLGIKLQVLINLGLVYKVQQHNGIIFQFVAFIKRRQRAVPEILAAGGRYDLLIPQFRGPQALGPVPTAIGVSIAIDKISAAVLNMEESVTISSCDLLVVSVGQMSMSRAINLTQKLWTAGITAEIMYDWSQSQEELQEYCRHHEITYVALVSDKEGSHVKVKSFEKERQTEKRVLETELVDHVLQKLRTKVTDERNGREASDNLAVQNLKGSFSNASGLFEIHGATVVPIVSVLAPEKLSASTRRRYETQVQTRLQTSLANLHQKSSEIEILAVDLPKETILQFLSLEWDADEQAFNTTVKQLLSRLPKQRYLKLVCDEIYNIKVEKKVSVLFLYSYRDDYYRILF
intracellular GCN2 (phosphorylation of the GCN2 substrate eIF2α), sequence (Q9P2K8 whole entry): as above

| Structure (SMILES) | IC50 [1, 2] | Ki (GCN2 kinase; [3]) | IC50 [1, 4] | Ki (GCN2 kinase; [5]) | other results |
| --- | --- | --- | --- | --- | --- |
| CC1C(c2cn[nH]c2)NCCN1c1ccnc(-c2cnc3cnccn23)n1 (stereo not shown) [IV-397, 3-(4-(2-Methyl-3-(1H-pyrazol-4-yl)piperazin-1-yl)pyrimidin-2-yl)imidazo[1,2-a]pyrazine] | > 5000 nM | 100 to 1000 nM | – | – | – |
| FC(F)OC1CC(c2cn[nH]c2)CN(c2ccnc(-c3cnc4cnc(C(F)(F)F)cn34)n2)C1 (stereo not shown) [IV-466, 3-(4-(3-(Difluoromethoxy)-5-(1H-pyrazol-4-yl)piperidin-1-yl)pyrimidin-2-yl)-6-(trifluoromethyl)imidazo[1,2-a]pyrazine] | 500 to 5000 nM | < 10 nM | – | – | – |
| C[C@H]1CN(c2cc(-c3cnc4ccc(C(F)F)nn34)ncn2)C[C@@H]1CNS(C)(=O)=O [II-237, N-(((3R,4R)-1-(6-(6-(Difluoromethyl)imidazo[1,2-b]pyridazin-3-yl)pyrimidin-4-yl)-4-methylpyrrolidin-3-yl)methyl)methanesulfonamide] | – | – | 500 to 5000 nM | < 10 nM | – |
| CS(=O)(=O)NCC1CCCN(c2cncc(-c3cnc4ccc(C(F)F)nn34)c2)C1 (stereo not shown) [II-87, N-((1-(5-(6-(Difluoromethyl)imidazo[1,2-b]pyridazin-3-yl)pyridin-3-yl)piperidin-3-yl)methyl)methanesulfonamide] | – | – | 500 to 5000 nM | < 10 nM | – |
| Cc1nc(C2CCCN(c3ccnc(-c4cnc5cnc(Br)cn45)n3)C2)c[nH]1 (stereo not shown) [IV-355, 6-Bromo-3-(4-(3-(2-methyl-1H-imidazol-4-yl)piperidin-1-yl)pyrimidin-2-yl)imidazo[1,2-a]pyrazine] | 500 to 5000 nM | < 10 nM | – | – | – |
| CC1NCC(C)N(c2ccnc(-c3cnc4cnc(C(F)(F)F)cn34)n2)C1c1ccc(=O)[nH]c1 (stereo not shown) [IV-676, 5-(3,6-Dimethyl-1-(2-(6-(trifluoromethyl)imidazo[1,2-a]pyrazin-3-yl)pyrimidin-4-yl)piperazin-2-yl)pyridin-2(1H)-one] | 500 to 5000 nM | 100 to 1000 nM | – | – | – |
| FC(F)(F)c1cn2c(-c3nccc(N4CCC(C5CCOC5)C4)n3)cnc2cn1 (stereo not shown) [IV-609, 3-(4-(3-(Tetrahydrofuran-3-yl)pyrrolidin-1-yl)pyrimidin-2-yl)-6-(trifluoromethyl)imidazo[1,2-a]pyrazine] | > 5000 nM | 100 to 1000 nM | – | – | – |
| CC(=O)N1CCN(c2ccnc(-c3cnc4cnc(C(C)(F)F)cn34)n2)CC1 [IV-78, 1-(4-(2-(6-(1,1-Difluoroethyl)imidazo[1,2-a]pyrazin-3-yl)pyrimidin-4-yl)piperazin-1-yl)ethan-1-one] | > 5000 nM | 100 to 1000 nM | – | – | – |
| CC1C(c2cn[nH]c2)NCCN1c1ccnc(-c2cnc3cnc(Br)cn23)n1 (single isomer, unassigned) [IV-351, 6-Bromo-3-(4-(2-methyl-3-(1H-pyrazol-4-yl)piperazin-1-yl)pyrimidin-2-yl)imidazo[1,2-a]pyrazine] | < 500 nM | < 10 nM | – | – | – |
| NS(=O)(=O)N[C@H]1CCCN(c2ccnc(-c3cnc4cnc(C(F)F)cn34)n2)C1 [IV-179, 6-(Difluoromethyl)-3-[4-[(3S)-3-(sulfamoylamino)-1-piperidyl]pyrimidin-2-yl]imidazo[1,2-a]pyrazine] | > 5000 nM | 100 to 1000 nM | – | – | – |
| CC1C(CNS(C)(=O)=O)C(F)(F)C(C)CN1c1cc(-c2cnc3ccc(C(F)F)nn23)ncn1 (single isomer, unassigned) [II-470, N-((1-(6-(6-(Difluoromethyl)imidazo[1,2-b]pyridazin-3-yl)pyrimidin-4-yl)-4,4-difluoro-2,5-dimethylpiperidin-3-yl)methyl)methanesulfonamide] | – | – | 500 to 5000 nM | 10 to 1000 nM | – |
| CNc1cc(-c2cnc3ccc(C(F)F)nn23)cc(N2CCC[C@H](CNS(C)(=O)=O)C2)n1 [II-68, (S)—N-((1-(4-(6-(Difluoromethyl)imidazo[1,2-b]pyridazin-3-yl)-6-(methylamino)pyridin-2-yl)piperidin-3-yl)methyl)methanesulfonamide] | – | – | 500 to 5000 nM | < 10 nM | – |
| CC1CN(c2ccnc(-c3cnc4cnc(C(F)(F)F)cn34)n2)C(C)C(c2cnn(C)c2)N1 (stereo not shown) [IV-687, 3-(4-(2,5-Dimethyl-3-(1-methyl-1H-pyrazol-4-yl)piperazin-1-yl)pyrimidin-2-yl)-6-(trifluoromethyl)imidazo[1,2-a]pyrazine] | 500 to 5000 nM | 100 to 1000 nM | – | – | – |
| Cc1noc([C@@H]2CN(c3ccnc(-c4cnc5cnc(C(F)(F)F)cn45)n3)C[C@H](C)O2)n1 [IV-712] | > 5000 nM | 100 to 1000 nM | – | – | – |
| CC1C(CNS(C)(=O)=O)C(F)(F)C(C)CN1c1cc(-c2cnc3ccc(C(F)F)nn23)ncn1 (stereo not shown) [II-461, N-((1-(6-(6-(Difluoromethyl)imidazo[1,2-b]pyridazin-3-yl)pyrimidin-4-yl)-4,4-difluoro-2,5-dimethylpiperidin-3-yl)methyl)methanesulfonamide] | – | – | 500 to 5000 nM | < 10 nM | – |
| CC1CN(c2ccnc(-c3cnc4sc(C(F)F)cn34)n2)CC(CNS(C)(=O)=O)C1(F)F (stereo not shown) [Compound V-14, N-[[1-[2-[2-(Difluoromethyl)imidazo[2,1-b]thiazol-5-yl]pyrimidin-4-yl]-4,4-difluoro-5-methyl-3-piperidyl]methyl]methanesulfonamide] | – | – | – | – | IC50 ([1]; compounds of Formula V, U2OS cells, 10 μM borrelidin, 1 h, read-out: GCN2 Biomarker (IC50)): 500 to 5000 nM; Ki (GCN2 kinase; compounds of Formula V, 4 nM GCN2 kinase): 10 to 100 nM |
| CC(=O)N1CCN(c2cc(-c3cnc4ccc(N5CCC(N)C5)nn34)ccn2)CC1 (stereo not shown) [II-736, 1-(4-(4-(6-(3-aminopyrrolidin-1-yl)imidazo[1,2-b]pyridazin-3-yl)pyridin-2-yl)piperazin-1-yl)ethan-1-one] | – | – | > 5000 nM | > 1000 nM | – |
| CS(=O)(=O)N(O)CC1CN(c2cc(-c3cnc4ccc(C(F)F)nn34)ccn2)CCC1(F)F (stereo not shown) [II-131, N-((1-(4-(6-(Difluoromethyl)imidazo[1,2-b]pyridazin-3-yl)pyridin-2-yl)-4,4-difluoropiperidin-3-yl)methyl)-N-hydroxymethanesulfonamide] | – | – | < 500 nM | < 10 nM | – |
| O=C1CCC2(CCN(c3cc(-c4cnc5ccc(C(F)F)nn45)ncn3)CC2)CN1 [II-211, 9-(6-(6-(Difluoromethyl)imidazo[1,2-b]pyridazin-3-yl)pyrimidin-4-yl)-2,9-diazaspiro[5.5]undecan-3-one] | – | – | 500 to 5000 nM | 10 to 1000 nM | – |
| CC1C(CNS(C)(=O)=O)CCCN1c1cc(-c2cnc3ccc(C(F)F)nn23)ncn1 (single isomer, unassigned) [II-266, N-((1-(6-(6-(Difluoromethyl)imidazo[1,2-b]pyridazin-3-yl)pyrimidin-4-yl)-2-methylpiperidin-3-yl)methyl)methanesulfonamide] | – | – | < 500 nM | < 10 nM | – |
| CC1CN(c2nccc(-c3cnc4cnc(C(F)(F)F)cn34)n2)CC(c2cn[nH]c2)O1 (single isomer, unassigned) [IV-199, 2-Methyl-6-(1H-pyrazol-4-yl)-4-(4-(6-(trifluoromethyl)imidazo[1,2-a]pyrazin-3-yl)pyrimidin-2-yl)morpholine] | 500 to 5000 nM | 10 to 100 nM | – | – | – |
| CC1C(CNS(C)(=O)=O)CCCN1c1cc(-c2cnc3ccc(C(F)F)nn23)ncn1 (single isomer, unassigned) [II-265, N-((1-(6-(6-(Difluoromethyl)imidazo[1,2-b]pyridazin-3-yl)pyrimidin-4-yl)-2-methylpiperidin-3-yl)methyl)methanesulfonamide] | – | – | > 5000 nM | 10 to 1000 nM | – |
| C[C@@H]1C[C@H](N=S(C)(C)=O)[C@H](C)N(c2cc(-c3cnc4ccc(C(F)F)nn34)ncn2)C1 (single isomer, unassigned) [II-631] | – | – | < 500 nM | < 10 nM | – |
| CS(=O)(=O)NCC1CN(c2cc(-c3cnc4ccc(C(F)F)nn34)ncn2)CC(F)(F)C1 (stereo not shown) [II-258, N-((1-(6-(6-(Difluoromethyl)imidazo[1,2-b]pyridazin-3-yl)pyrimidin-4-yl)-5,5-difluoropiperidin-3-yl)methyl)methanesulfonamide] | – | – | < 500 nM | < 10 nM | – |
| FC(F)c1cn2c(-c3nccc(N4CCCC(c5nn[nH]n5)C4)n3)cnc2cn1 (stereo not shown) [IV-51, 3-(4-(3-(2H-Tetrazol-5-yl)piperidin-1-yl)pyrimidin-2-yl)-6-(difluoromethyl)imidazo[1,2-a]pyrazine] | > 5000 nM | 100 to 1000 nM | – | – | – |
| FC(F)c1ccc2ncc(-c3cc(-c4cnn(C5CCOCC5)c4)ncn3)n2n1 [II-709, 6-(Difluoromethyl)-3-[6-(1-tetrahydropyran-4-ylpyrazol-4-yl)pyrimidin-4-yl]imidazo[1,2-b]pyridazine] | – | – | 500 to 5000 nM | 10 to 1000 nM | – |
| CS(=O)(=O)N1CCCC2(CN(c3cc(-c4cnc5ccc(C(F)F)nn45)ncn3)CCO2)C1 (stereo not shown) [II-288, 4-(6-(6-(Difluoromethyl)imidazo[1,2-b]pyridazin-3-yl)pyrimidin-4-yl)-8-(methylsulfonyl)-1-oxa-4,8-diazaspiro[5.5]undecane] | – | – | > 5000 nM | 10 to 1000 nM | – |
| OC1CCN(C2CCN(c3cc(-c4cnc5ccc(C(F)F)nn45)ncn3)C2)C1 (stereo not shown) [II-352, 1′-(6-(6-(Difluoromethyl)imidazo[1,2-b]pyridazin-3-yl)pyrimidin-4-yl)-[1,3′-bipyrrolidin]-3-ol] | – | – | > 5000 nM | 10 to 1000 nM | – |
| FC(F)c1ccc2ncc(-c3cc(C4CCCN(C5COC5)C4)ncn3)n2n1 (single isomer, unassigned) [II-241, 6-(Difluoromethyl)-3-(6-(1-(oxetan-3-yl)piperidin-3-yl)pyrimidin-4-yl)imidazo[1,2-b]pyridazine] | – | – | > 5000 nM | > 1000 nM | – |
